Earlier results on one substance are cited in patent US4665052A, “Renin inhibitors containing homophe^8 and a C-terminal amide cycle” (Merck & Co., Inc., priority 1984, dated 1987).

Data set [1] relates to aspartyl proteases such as pepsin, cathepsin D, and renin. The following applies: selectivity.
The test system of a further data set is hog renin. The note with it: after injection of hog renin into nephrectomized rats; Gross et al. 1971.

With pepstatin, the “inhibition of other acid proteases in addition to renin” value in data set [1] was “inhibition of a variety of other acid proteases in addition to renin”. The “blood pressure in vivo” value in the data set on hog renin was “reduce blood pressure in vivo”.
